Data set [1] concerns cyclic flow reductions (CFRs) in injured, stenosed femoral artery. As to the kind of experiment: Folts thrombosis model in baboons: length/inhibition of cyclic flow reductions (CFRs). It counts as in vivo, baboon (Papio ursinus). On the procedure: The study protocol that was applied is the original Folts model and some modifications described below (Folts J D, et al, Circulation. 1976; 54:365-370). Healthy male or female baboons (Papio ursinus) were used. The animals were 8-17 kg of weight and were disease-free for at least 2 weeks prior to use. The baboons were fed with dry standard food only. The baboons were used at different time points. […] Animals were anaesthetized and body temperature is maintained at 37° C. with a heating table. A segment of a femoral artery was dissected free from surrounding tissue. A shunt was placed between the femoral vein and femoral artery to obtain high shear rates. The mean and phasic blood flow was recorded continuously throughout the experiment. Baseline flow was recorded for 20 minutes. […] A clamp was placed over the injured site to create an external stenosis. A gradual decline in blood flow due to platelet adhesion and aggregation was observed. When flow was reduced to zero, blood flow was restored by opening the clamp to dislodge the platelet-rich thrombus. This repetitive pattern of decreasing blood flow following mechanical restoration is referred to as cyclic flow reductions (CFRs). Additional endothelial injury was repeated if needed to finally obtain stable CFRs in these baboons. The number of times the thrombus needed to be dislodged determines the number of CFRs. FIG. 24 illustrates blood flow pattern during the Folts model in baboons. […] This procedure was repeated for several times with escalating doses of the test substance. The anti-thrombotic effect was quantified by comparing the length of CFRs before and after drug administration. When full inhibition of CFRs was observed, a new injury was applied in order to confirm that the inhibition was an effect of the treatment but not of a natural healing phenomenon.

Details of data set [2]: species or system baboon (Papio ursinus). Particulars: in vivo. As for the experimental part:
The aPTT values observed during the Folts model studies are summarized. […] In these animals, aPTT values are prolonged from the 30-60 IU/kg dose on, as is also observed in patients. Heparin acts as an anticoagulant by forming a complex with antithrombin and catalyzing the inhibition of activated blood coagulation factors such as XIa, IXa, Xa and thrombin (factor IIa). These factors are all involved in the intrinsic coagulation cascade of which its functionality is measured in the aPTT test.

The nature of data set [3]: PT during the Folts model. Particulars: 240 IU/kg dose. It counts as in vivo, baboon (Papio ursinus).
[4] abbreviates: number of experiments with inhibition / total number of independent repeats.

Values joined by “and” are separate entries in the source; they are usually repeats but may differ in a detail not shown here. Equal entries are not always repeated. Where only a bound is given, the exact number is not on record here.

Regarding Heparin, the “Length of CFRs” value in data set [1] (Heparin final dose 15 IU/kg, individual baboons 6, 7, 8) is 630 s and 208 s and 255 s; in data set [1] (Heparin final dose 30 IU/kg, individual baboons 6, 7, 8) it was 355 s and 241 s and 320 s; in data set [1] (Heparin final dose 60 IU/kg, individual baboons 6, 7, 8) it was 432 s and 246 s and 332 s; in data set [1] (Heparin final dose 120 IU/kg, individual baboons 6, 7, 8), 610 s and 160 s and 206 s; in data set [1] (Heparin final dose 240 IU/kg, individual baboons 6, 7, 8), >1800 s and 221 s and 169 s; in data set [1] (Heparin-treated, after Epinephrin, baboons 6, 7), 109 s and 65 s. Besides, the “dose at which full inhibition of CFRs was obtained” value in data set [1] (baboon 6, first dose) was determined as 15 IU/kg. Further, the “CFRs upon a new injury” value was “CFRs were inhibited even after a new injury” in data set [1] (baboon 6, highest dose of 240 IU/kg) and “the CFRs returned each time” in data set [1] (new injury applied at full inhibition of CFRs). For the same substance, the “Inhibition of CFRs” value is “no inhibition of the CFRs could be obtained” in data set [1] (baboons 7 and 8, doses as high as 240 IU/kg); 1/3 in data set [1] (setting [4]). Further, in data set [1] (setting [4]), the “Inhibition of CFRs after administration of Epinephrin” value is recorded as 0/2. The “Inhibition of CFRs after new injury” value in data set [1] (setting [4]) was 1/3. The “dose from which aPTT values are prolonged” value in data set [2] is given as 30-60 IU/kg. The “effect on the PT time” value in data set [3] is reported as “minor increase in PT”.

Values taken from patent publication US7807162B2, “Single domain VHH antibodies against von Willebrand factor” (Ablynx N.V., priority 2005, dated 2010).
